Reference: paper PMC11770808, “Interplay between conformational dynamics and substrate binding regulates enzymatic activity: a single-molecule FRET study” (Chemical Science, 2025)
Like-named read-outs stand apart in the source and are kept apart here.

Molecular target: T1, adenylate kinase (AK), wild-type (WT) (Escherichia coli, UniProt P69441)
T1 construct: gene adk; purified recombinant, details only in ESI
Test: microscale thermophoresis
Type: binding

T1 sequence (P69441 whole entry): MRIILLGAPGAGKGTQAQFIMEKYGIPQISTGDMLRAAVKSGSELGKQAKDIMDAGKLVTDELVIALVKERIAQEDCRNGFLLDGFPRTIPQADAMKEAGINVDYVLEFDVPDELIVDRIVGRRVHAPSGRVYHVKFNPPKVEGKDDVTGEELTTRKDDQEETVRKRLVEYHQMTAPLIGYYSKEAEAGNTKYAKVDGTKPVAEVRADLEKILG

| Kd (read-out: Kd (AMP)) [µM] | Kd (read-out: WT) [µM] | Compound |
| --- | --- | --- |
| 332 ± 40 |  | Nc1ncnc2c1ncn2[C@@H]1O[C@H](COP(=O)(O)O)[C@@H](O)[C@H]1O [AMP] |
|  | 159 ± 17 | Nc1ncnc2c1ncn2[C@@H]1O[C@H](COP(=O)(O)OP(=O)(O)OP(=O)(O)O)[C@@H](O)[C@H]1O [ATP] |
